From US20060069132A1, “Azolecarboxamide herbicides” (priority 2004, published 2006)

How the values were obtained:
barnyardgrass [1] = assay: Test A pre-/postemergence herbicide test; assay type: in vivo, Echinochloa crus-galli
Outline: (§1)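 Pre: seeded sandy loam, directed soil spray, compound in non-phytotoxic solvent + surfactant. Post: 1–2-leaf plants (2–10 cm), sprayed to runoff. Greenhouse ~10 d; visual injury vs untreated, 0–100 scale.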

large crabgrass [2] = assay: Test A pre-/postemergence herbicide test; assay type: in vivo, Digitaria sanguinalis
Outline: as §1

giant foxtail [3] = assay: Test A pre-/postemergence herbicide test; assay type: in vivo, Setaria faberi
Outline: as §1

morningglory [4] = assay: Test A pre-/postemergence herbicide test; assay type: in vivo, Ipomoea spp.
Outline: as §1

redroot pigweed = assay: Test A pre-/postemergence herbicide test; assay type: in vivo, Amaranthus retroflexus
Outline: as §1

velvetleaf [5] = assay: Test A pre-/postemergence herbicide test; assay type: in vivo, Abutilon theophrasti
Outline: as §1

barnyardgrass [6] = assay: Test B pre-/postemergence herbicide test; assay type: in vivo, Echinochloa crus-galli; settings: for Barnyardgrass plant response rating: postemergence, visual rating, scale 0 (no effect) to 100 (complete control)
Outline: (§2)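 Test chemicals in a non-phytotoxic solvent mixture with surfactant were applied preemergence to seeded species and postemergence to plants 2-18 cm tall (1- to 4-leaf stage); rice and barnyardgrass were also tested in a flooded paddy at the 2-leaf stage. Visual rating versus controls after 13-15 days in greenhouse, scale 0 (no effect) to 100 (complete control).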

Surinam grass = assay: Test B pre-/postemergence herbicide test; assay type: in vivo, Urochloa decumbens; settings: for Surinam Grass plant response rating: postemergence, visual rating, scale 0 (no effect) to 100 (complete control)
Outline: (§3)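 Seeds were planted and treated preemergence with compounds formulated in a non-phytotoxic solvent mixture containing surfactant, while plants at the 1- to 4-leaf stage (2 to 18 cm) received postemergence sprays. Flooded paddy plants were grown to the 2-leaf stage. After 13 to 15 days in a greenhouse, injury was visually rated 0–100 against untreated controls.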

cocklebur = assay: Test B pre-/postemergence herbicide test; assay type: in vivo, Xanthium strumarium; settings: for Cocklebur plant response rating: postemergence, visual rating, scale 0 (no effect) to 100 (complete control)
Outline: as §2

corn = assay: Test B pre-/postemergence herbicide test; assay type: in vivo, Zea mays; settings: for Corn plant response rating: postemergence, visual rating, scale 0 (no effect) to 100 (complete control)
Outline: as §3

large crabgrass [7] = assay: Test B pre-/postemergence herbicide test; assay type: in vivo, Digitaria sanguinalis; settings: for Crabgrass, Large plant response rating: postemergence, visual rating, scale 0 (no effect) to 100 (complete control)
Outline: as §3

giant foxtail [8] = assay: Test B pre-/postemergence herbicide test; assay type: in vivo, Setaria faberi; settings: for Foxtail, Giant plant response rating: postemergence, visual rating, scale 0 (no effect) to 100 (complete control)
Outline: as §3

lambsquarters = assay: Test B pre-/postemergence herbicide test; assay type: in vivo, Chenopodium album; settings: for Lambsquarters plant response rating: postemergence, visual rating, scale 0 (no effect) to 100 (complete control)
Outline: as §3

morningglory [9] = assay: Test B pre-/postemergence herbicide test; assay type: in vivo, Ipomoea coccinea; settings: for Morningglory plant response rating: postemergence, visual rating, scale 0 (no effect) to 100 (complete control)
Outline: as §2

pigweed = assay: Test B pre-/postemergence herbicide test; assay type: in vivo, Amaranthus retroflexus; settings: for Pigweed plant response rating: postemergence, visual rating, scale 0 (no effect) to 100 (complete control)
Outline: as §3

rice [10] = assay: Test B pre-/postemergence herbicide test; assay type: in vivo, Oryza sativa; settings: preemergence
Outline: as §3

velvetleaf [11] = assay: Test B pre-/postemergence herbicide test; assay type: in vivo, Abutilon theophrasti; settings: for Velvetleaf plant response rating: postemergence, visual rating, scale 0 (no effect) to 100 (complete control)
Outline: as §3

blackgrass = assay: Test B postemergence herbicide test; assay type: in vivo, Alopecurus myosuroides; settings: postemergence, visual rating, scale 0 (no effect) to 100 (complete control)
Outline: (§4)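 Paddy species grown to the 2-leaf stage under flooding; blackgrass sprayed postemergence at 2–18 cm (1- to 4-leaf stage). Plants kept in a greenhouse for 13 to 15 days, then visually rated against controls on 0 (no effect) to 100 (complete control).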

wheat = assay: Test B postemergence herbicide test; assay type: in vivo, Triticum aestivum; design: key to Wheat plant response rating: 0 = no effect, 100 = complete control; settings: postemergence, visual rating, scale 0 (no effect) to 100 (complete control)
Outline: (§5)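 Postemergence plants were sprayed with formulated test chemicals at 2 to 18 cm height (1- to 4-leaf stage); paddy species were grown to the 2-leaf stage. After 13 to 15 days in a greenhouse, injury was rated visually against untreated controls on a 0–100 scale (0 = no effect, 100 = complete control).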

wild oat = assay: Test B postemergence herbicide test; assay type: in vivo, Avena fatua; settings: postemergence, visual rating, scale 0 (no effect) to 100 (complete control)
Outline: as §5

rice [12] = assay: Test B flooded paddy test; assay type: in vivo, Oryza sativa; settings: 1000 g ai/ha, visual rating, scale 0 to 100 (0 no effect, 100 complete control), 13 to 15 days
Outline: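 Visual ratings, 0 (no effect) to 100 (complete control), made versus controls after 13–15 d greenhouse. Paddy plants treated at 2-leaf stage; postemergence plants at 1- to 4-leaf stage, 2–18 cm tall.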

[13] = tested on: small flower umbrella sedge; assay: Test B flooded paddy test; assay type: in vivo, Cyperus difformis; settings: 1000 g ai/ha, visual rating, scale 0 to 100 (0 no effect, 100 complete control), 13 to 15 days
Outline: as §4

ducksalad = assay: Test B flooded paddy test; assay type: in vivo, Heteranthera limosa; settings: 1000 g ai/ha, visual rating, scale 0 to 100 (0 no effect, 100 complete control), 13 to 15 days
Outline: as §4

barnyardgrass [14] = assay: Test B flooded paddy test; assay type: in vivo, Echinochloa crus-galli; settings: 1000 g ai/ha, visual rating, scale 0 to 100 (0 no effect, 100 complete control), 13 to 15 days
Outline: as §4

[15] = Postemergence, 500 g ai/ha, 0 to 100 scale, 0 no effect, 100 complete control
[16] = Postemergence, 2000 g ai/ha, 0 to 100 scale, 0 no effect, 100 complete control
[17] = Preemergence, 2000 g ai/ha, visual rating, 0 to 100 scale (0 no effect, 100 complete control)
[18] = preemergence, 500 g ai/ha, visual injury, 0 to 100 scale (0 no effect, 100 complete control)
[19] = 125 g ai/ha, 0 = no effect, 100 = complete control, preemergence
[20] = 500 g ai/ha, visual rating 0-100, 0 no effect, 100 complete control, preemergence

## C#CCNC(=O)c1cccc(NC(=O)c2sc(C(C)(C)C)nc2C)c1 [Compound 203]
Barnyardgrass [1]; [15]
  Barnyardgrass plant response rating: 10
Barnyardgrass [1]; [16]
  Plant response rating, Barnyardgrass: 30
Barnyardgrass [1]; [17]
  Barnyardgrass plant response rating: 60
Barnyardgrass [1]; [18]
  Barnyardgrass plant response rating: 10
Large crabgrass [2]; [15]
  Crabgrass, Large plant response rating: 10
Large crabgrass [2]; [16]
  Plant response rating, Crabgrass, Large: 15
Large crabgrass [2]; [17]
  Crabgrass, Large plant response rating: 75
Large crabgrass [2]; [18]
  Crabgrass, Large plant response rating: 50
Giant foxtail [3]; [15]
  Foxtail, Giant plant response rating: 10
Giant foxtail [3]; [16]
  Plant response rating, Foxtail, Giant: 20
Giant foxtail [3]; [17]
  Foxtail, Giant plant response rating: 75
Giant foxtail [3]; [18]
  Foxtail, Giant plant response rating: 30
Morningglory [4]; [15]
  Morningglory plant response rating: 50
Morningglory [4]; [16]
  Plant response rating, Morningglory: 55
Morningglory [4]; [17]
  Morningglory plant response rating: 15
Morningglory [4]; [18]
  Morningglory plant response rating: 10
Redroot pigweed; [15]
  Pigweed plant response rating: 35
Redroot pigweed; [16]
  Plant response rating, Pigweed: 80
Redroot pigweed; [17]
  Pigweed plant response rating: 90
Redroot pigweed; [18]
  Pigweed plant response rating: 90
Velvetleaf [5]; [15]
  Velvetleaf plant response rating: 10
Velvetleaf [5]; [16]
  Plant response rating, Velvetleaf: 10
Velvetleaf [5]; [17]
  Velvetleaf plant response rating: 35
Velvetleaf [5]; [18]
  Velvetleaf plant response rating: 15
Barnyardgrass [6]; [19]
  Barnyardgrass plant response rating (0 to 100 scale): 0
Barnyardgrass [6]; [20]
  Plant response rating, Barnyardgrass: 10
Barnyardgrass [6]; 125 g ai/ha
  Barnyardgrass plant response rating: 0
Barnyardgrass [6]; 500 g ai/ha
  Barnyardgrass plant response rating: 0
Surinam grass; [19]
  Surinam Grass plant response rating (0 to 100 scale): 0
Surinam grass; [20]
  Plant response rating, Surinam Grass: 0
Surinam grass; 125 g ai/ha
  Surinam Grass plant response rating: 10
Surinam grass; 500 g ai/ha
  Surinam Grass plant response rating: 20
cocklebur; [19]
  Cocklebur plant response rating (0 to 100 scale): 0
cocklebur; [20]
  Plant response rating, Cocklebur: 10
cocklebur; 125 g ai/ha
  Cocklebur plant response rating: 0
cocklebur; 500 g ai/ha
  Cocklebur plant response rating: 10
corn; [19]
  Corn plant response rating (0 to 100 scale): 0
corn; [20]
  Plant response rating, Corn: 0
corn; 125 g ai/ha
  Corn plant response rating: 0
corn; 500 g ai/ha
  Corn plant response rating: 10
Large crabgrass [7]; [19]
  Crabgrass, Large plant response rating (0 to 100 scale): 30
Large crabgrass [7]; [20]
  Plant response rating, Crabgrass, Large: 80
Large crabgrass [7]; 125 g ai/ha
  Crabgrass, Large plant response rating: 0
Large crabgrass [7]; 500 g ai/ha
  Crabgrass, Large plant response rating: 10
Giant foxtail [8]; [19]
  Foxtail, Giant plant response rating (0 to 100 scale): 0
Giant foxtail [8]; [20]
  Plant response rating, Foxtail, Giant: 10
Giant foxtail [8]; 125 g ai/ha
  Foxtail, Giant plant response rating: 0
Giant foxtail [8]; 500 g ai/ha
  Foxtail, Giant plant response rating: 10
lambsquarters; [19]
  Lambsquarters plant response rating (0 to 100 scale): 10
lambsquarters; [20]
  Plant response rating, Lambsquarters: 30
lambsquarters; 125 g ai/ha
  Lambsquarters plant response rating: 10
lambsquarters; 500 g ai/ha
  Lambsquarters plant response rating: 50
Morningglory [9]; [19]
  Morningglory plant response rating (0 to 100 scale): 0
Morningglory [9]; [20]
  Plant response rating, Morningglory: 10
Morningglory [9]; 125 g ai/ha
  Morningglory plant response rating: 0
Morningglory [9]; 500 g ai/ha
  Morningglory plant response rating: 30
pigweed; [19]
  Pigweed plant response rating (0 to 100 scale): 10
pigweed; [20]
  Plant response rating, Pigweed: 90
pigweed; 125 g ai/ha
  Pigweed plant response rating: 0
pigweed; 500 g ai/ha
  Pigweed plant response rating: 10
Rice [10]; 125 g ai/ha, 0 = no effect, 100 = complete control
  Rice plant response rating (0 to 100 scale): 0
Rice [10]; 500 g ai/ha, visual rating 0-100, 0 no effect, 100 complete control
  Plant response rating, Rice: 0
Velvetleaf [11]; [19]
  Velvetleaf plant response rating (0 to 100 scale): 0
Velvetleaf [11]; [20]
  Plant response rating, Velvetleaf: 20
Velvetleaf [11]; 125 g ai/ha
  Velvetleaf plant response rating: 0
Velvetleaf [11]; 500 g ai/ha
  Velvetleaf plant response rating: 10
blackgrass; 125 g ai/ha
  Blackgrass plant response rating: 0
blackgrass; 500 g ai/ha
  Blackgrass plant response rating: 0
wheat; 125 g ai/ha
  Wheat plant response rating: 0
wheat; 500 g ai/ha
  Wheat plant response rating: 0
Wild oat; 125 g ai/ha
  Oat, Wild plant response rating: 0
Wild oat; 500 g ai/ha
  Oat, Wild plant response rating: 10
Rice [12]
  Rice plant response rating: 0
[13]
  Sedge, Umbrella plant response rating: 0
ducksalad
  Ducksalad plant response rating: 0
Barnyardgrass [14]
  Barnyardgrass plant response rating: 0
